Experimental data from patent publication US20240294541A1, “COMPOUNDS CONSTITUTING C20-MODIFIED SALINOMYCIN DERIVATIVES, A METHOD FOR OBTAINING THE SAME, A COMPOSITION CONTAINING THE SAME AND A USE OF SAID COMPOUNDS” (FILECLO SPOLKA Z OGRANICZONA ODPOWIEDZIALNOSCIA, priority 2021, published 2024).
Where two headings read alike, the source gives them in different places.

Legend:
Assay type in all cases: cell-based
[1] = tested on: A2780Cis (cisplatin-resistant human ovarian cancer); experiment: In vitro cytotoxicity, SRB assay, A2780Cis; conditions: for IC50: Homo sapiens, A2780cis, read-out: IC50 (nM) A2780Cis
Hs294T (human melanoma) = experiment: cells; conditions: for IC50: Hs 294T, read-out: IC50 (nM) Hs294T; for SI Hs294T: selectivity coefficient vs normal BALB/3T3 fibroblasts
[2] = tested on: PLC/PRF/5 (human liver cancer); experiment: cells; conditions: for SI PLC/PRF/5: selectivity coefficient vs normal BALB/3T3 fibroblasts
[3] = tested on: SNU-16 (human gastric cancer); experiment: cells; conditions: for SI SNU-16: selectivity coefficient vs normal BALB/3T3 fibroblasts
[4] = tested on: MIA PaCa-2 (human pancreatic cancer); experiment: cells; conditions: for SI MIA PaCa-2: selectivity coefficient vs normal BALB/3T3 fibroblasts
[5] = tested on: BALB/3T3 (normal mouse fibroblasts); experiment: In vitro cytotoxicity, SRB assay, normal BALB/3T3 fibroblasts
[6] = tested on: MV-4-11 (human biphenotypic leukaemia); experiment: In vitro cytotoxicity, MTT assay, MV-4-11; conditions: for IC50: Homo sapiens, MV4-11, read-out: IC50 (nM) MV4-11
[7] = tested on: NCI-H358 (human lung cancer); experiment: cells; conditions: for SI NCI-H358: selectivity coefficient vs normal BALB/3T3 fibroblasts
[8] = Table 4, Hs294T human melanoma cells
[9] = Table 4, PLC/PRF/5 human liver cancer cells, read-out: IC50 (nM) PLC/PRF/5
[10] = Table 4, SNU-16 human gastric cancer cells, read-out: IC50 (nM) SNU-16
[11] = Table 4, MIA PaCa-2 human pancreatic cancer cells, read-out: IC50 (nM) MIA PaCa-2
[12] = Table 4, BALB/3T3 normal mouse fibroblasts, read-out: IC50 (nM) BALB3T3 normal cells
[13] = Table 4, NCI-H358 human lung cancer cells, read-out: IC50 (nM) NCI-H358

Compound	SI A2780Cis [1]	IC50 [1] [nM]	IC50 (Hs294T (human melanoma); [8]) [nM]	SI Hs294T (Hs294T (human melanoma); Table 4)	IC50 [2, 9] [nM]	SI PLC/PRF/5 ([2]; Table 4)	IC50 [3, 10] [nM]	SI SNU-16 ([3]; Table 4)	IC50 [4, 11] [nM]	SI MIA PaCa-2 ([4]; Table 4)	IC50 [5, 12] [nM]	SI MV4-11 [6]	IC50 [6] [nM]	IC50 [7, 13] [nM]	SI NCI-H358 ([7]; Table 4)	also measured
CC[C@@H](C(=O)[C@@H](C)[C@@H](O)[C@H](C)[C@@H]1O[C@@H]([C@@H](CC)C(=O)O)CC[C@@H]1C)[C@H]1O[C@]2(C=C[C@@H](NC(=O)Nc3ccc(Cl)c(Cl)c3)[C@]3(CC[C@@](C)([C@H]4CC[C@](O)(CC)[C@H](C)O4)O3)O2)[C@H](C)C[C@@H]1C [FLC-00370-1•Na]	134.5	32.7	1860	2.4	144	30.5	1520	2.9	489	9.0	4400	106.9	41.2	826	5.33	–
CC[C@@H](C(=O)[C@@H](C)[C@@H](O)[C@H](C)[C@@H]1O[C@@H]([C@@H](CC)C(=O)O)CC[C@@H]1C)[C@H]1O[C@]2(C=C[C@@H](NC(=O)C(N)=O)[C@]3(CC[C@@](C)([C@H]4CC[C@](O)(CC)[C@H](C)O4)O3)O2)[C@H](C)C[C@@H]1C [FLC-00376-1•Na]	10.6	436	–	–	1360	3.4	–	–	1850	2.5	4640	7.0	663	5310	0.87	–
CC[C@@H](C(=O)[C@@H](C)[C@@H](O)[C@H](C)[C@@H]1O[C@@H]([C@@H](CC)C(=O)O)CC[C@@H]1C)[C@H]1O[C@]2(C=C[C@@H](NC(=O)Nc3cccc(C(F)(F)F)c3)[C@]3(CC[C@@](C)([C@H]4CC[C@](O)(CC)[C@H](C)O4)O3)O2)[C@H](C)C[C@@H]1C [FLC-00385-1]	≈219.0	< 0.1	162	0.1	0.55	39.7	20.9	1.0	5.93	3.7	21.9	125.5	0.17	36.2	0.60	–
CC[C@@H](C(=O)[C@@H](C)[C@@H](O)[C@H](C)[C@@H]1O[C@@H]([C@@H](CC)C(=O)O)CC[C@@H]1C)[C@H]1O[C@]2(C=C[C@@H](NC(N)=O)[C@]3(CC[C@@](C)([C@H]4CC[C@](O)(CC)[C@H](C)O4)O3)O2)[C@H](C)C[C@@H]1C [FLC-00391-1]	33.0	108	5870	0.6	584	6.1	1330	2.7	3090	1.2	3570	10.2	349	5150	0.69	–
CC[C@@H](C(=O)[C@@H](C)[C@@H](O)[C@H](C)[C@@H]1O[C@@H]([C@@H](CC)C(=O)O)CC[C@@H]1C)[C@H]1O[C@]2(C=C[C@@H](NC(=O)OCC(F)(F)F)[C@]3(CC[C@@](C)([C@H]4CC[C@](O)(CC)[C@H](C)O4)O3)O2)[C@H](C)C[C@@H]1C [FLC-00395-1•Na]	43.8	1.78	–	1.6	–	2.1	–	0.8	–	2.4	–	177.2	0.44	–	0.65	IC50 (Hs294T (human melanoma); Homo sapiens): 47.3 nM; IC50 ([2]; Homo sapiens, PLC-PRF-5, read-out: IC50 (nM) PLC/PRF/5): 37.5 nM; IC50 ([3]; Homo sapiens, SNU-16, read-out: IC50 (nM) SNU-16): 104 nM; IC50 ([4]; Homo sapiens, MIA PaCa-2, read-out: IC50 (nM) MIA PaCa-2): 33.1 nM; IC50 ([5]; Mus musculus, BALB/3T3, read-out: IC50 (nM) BALB3T3 normal cells): 78 nM; IC50 ([7]; Homo sapiens, NCI-H358, read-out: IC50 (nM) NCI-H358): 121 nM
CC[C@@H](C(=O)[C@@H](C)[C@@H](O)[C@H](C)[C@@H]1O[C@@H]([C@@H](CC)C(=O)O)CC[C@@H]1C)[C@H]1O[C@]2(C=C[C@@H](NC(=O)Nc3c(F)c(F)c(F)c(F)c3F)[C@]3(CC[C@@](C)([C@H]4CC[C@](O)(CC)[C@H](C)O4)O3)O2)[C@H](C)C[C@@H]1C [FLC-00428-1•Na]	56.0	4.36	173	1.4	7.85	31.1	114	2.1	36.9	6.6	244	182.9	1.34	57.3	4.27	–
CC[C@@H](C(=O)[C@@H](C)[C@@H](O)[C@H](C)[C@@H]1O[C@@H]([C@@H](CC)C(=O)O)CC[C@@H]1C)[C@H]1O[C@]2(C=C[C@@H](NC(=O)Oc3ccccc3)[C@]3(CC[C@@](C)([C@H]4CC[C@](O)(CC)[C@H](C)O4)O3)O2)[C@H](C)C[C@@H]1C [FLC-00429-1•Na]	–	–	115	–	27	–	168	–	39.8	–	–	–	–	76.1	–	–
CC[C@@H](C(=O)[C@@H](C)[C@@H](O)[C@H](C)[C@@H]1O[C@@H]([C@@H](CC)C(=O)O)CC[C@@H]1C)[C@H]1O[C@]2(C=C[C@@H](NC(=O)OCc3ccccc3)[C@]3(CC[C@@](C)([C@H]4CC[C@](O)(CC)[C@H](C)O4)O3)O2)[C@H](C)C[C@@H]1C [FLC-00431-1•Na]	–	–	115	–	5.8	–	143	–	28.9	–	–	–	–	56.1	–	–
CC[C@@H](C(=O)[C@@H](C)[C@@H](O)[C@H](C)[C@@H]1O[C@@H]([C@@H](CC)C(=O)O)CC[C@@H]1C)[C@H]1O[C@]2(C=C[C@@H](NC(=O)OCCF)[C@]3(CC[C@@](C)([C@H]4CC[C@](O)(CC)[C@H](C)O4)O3)O2)[C@H](C)C[C@@H]1C [FLC-00437-1•Na]	40.8	4.7	264	0.7	42.3	4.5	342	0.6	45.7	4.2	192	37.5	5.11	184	1.04	–
CC[C@@H](C(=O)[C@@H](C)[C@@H](O)[C@H](C)[C@@H]1O[C@@H]([C@@H](CC)C(=O)O)CC[C@@H]1C)[C@H]1O[C@]2(C=C[C@@H](NC(=O)OC(CCl)CCl)[C@]3(CC[C@@](C)([C@H]4CC[C@](O)(CC)[C@H](C)O4)O3)O2)[C@H](C)C[C@@H]1C [FLC-00440-1•Na]	26.1	4.41	130	0.9	9.5	12.1	400	0.3	43.6	2.6	115	32.6	3.52	60.2	1.91	–
